Results published in patent US10053455B2, “Diazaspiroalkaneone-substituted oxazole derivatives as spleen tyrosine kinase inhibitors” (AB SCIENCE, priority 2014, dated 2018).

Each compound was assayed on Salmonella typhimurium strain TA98 (assay: AMES mutagenic assay, TA98 strain). Details: Salmonella typhimurium, 0.25 μg per well.
Description: Mutagenic activity of test compounds and their metabolites (produced by rat liver S9 fraction) was evaluated in the Salmonella typhimurium strains TA100 and TA98 according to the Ames assay (Toxicology in vitro, (2001), 15: 105-114). […] The results are expressed as a mutagenicity ratio in comparison to solvent controls.
The results are expressed as a ratio of the number of colonies over the number of colonies in the negative control (DMSO).

SMILES	Mean revertant colony counts
O=[N+]([O-])c1ccc2c(c1)Cc1ccccc1-2 [Compound 2-NF, 2-Nitrofluorene, reference compound]	59.7

Same assay, conditions: TA98, absence of S-9, 0.25 μg per well (positive control)

SMILES	Ratio treated/solvent
O=[N+]([O-])c1ccc2c(c1)Cc1ccccc1-2 [Compound 2-NF, 2-Nitrofluorene, reference compound]	13.8

What follows are compounds tested against SYK kinase (Homo sapiens (Human), UniProt P43405) (assay: In vitro SYK inhibition assay (HTRF kinase assay)). Details: read-out: Syk (IC50).
Format: biochemical
Description: SYK kinase was purified as a full length protein in a baculovirus system near homogeneity. All kinase assays were performed with the Kinase TK (tyrosine kinase) HTRF (Homogeneous Time Resolved Fluorescence) assay developed by Cisbio international. […] Reactions were initiated upon introduction of the enzyme and terminated with the addition of one reaction volume (25 μl) of HTRF detection buffer. Plates were incubated for one hour at room temperature and the time resolved Fluorescence resonance energy transfer signal was measured in a Pherastar FS microplate reader (BMG Labtech).
Most of the kinases tested in this study were cloned, expressed and purified in the facilities of the inventors. They were expressed either as N-terminus hexahistidine-, hexahistidine-asparagine- or GST-tagged enzymes in a baculovirus or in a Colibacille expression system. Remaining enzymes (JAKs) were purchased from Millipore or Proqinase. For each enzyme, steady state kinetic parameters were determined and validated with known inhibitors.
The analysis of the effect of compounds on kinase activity was assessed with the HTRF® KinEASE assay (Cisbio International), an immuno-assay based on the quantification of the level of phosphorylation of a biotinylated peptide substrate using anti-phospho-specific antibody labeled with Europium (Eu^3+) cryptate. This assay comprises two steps: —an enzymatic step, during which the peptide substrate, the kinase, ATP, Mg^2+ and/or Mn^2+ are incubated with varying concentration of drug (from 0 to 10 μM); —a detection step, at the end of the reaction (stopped by addition of EDTA which chelates Mg^2+), the antibody anti-phospho peptide-Eu^3+ (emission 620 nm) and streptavidin XL-665 (emission 665 nm) are added to the reaction mix. After incubation, the obtained signal is proportional to the concentration of phosphorylated peptide in the sample. All measurements were performed on a BMG Labtech Pherastar FS apparatus. Results are expressed in delta fluorescence (DF) unit defined as follow DF %=[(ratio−ratio blank)/(ratio blank)]*100, where ratio=(665 nm/620 nm)*10^4. Each experiment was performed in duplicate and repeated two or three times.

SMILES	IC50
N#Cc1ccnc(Nc2cccc(-c3cnc(N4CCNC(=O)C45CC5)o3)c2)n1 [Compound 002, 2-{3-[2-(8-Oxo-4,7-diaza-spiro[2.5]oct-4-yl)-oxazol-5-yl]-phenylamino}-pyrimidine-4-carbonitrile]	< 500 nM
O=C1NCCN(c2ncc(-c3cc(CN4CCOCC4)cc(Nc4nccc(C(F)(F)F)n4)c3)o2)C12CC2 [Compound 003, 4-{5-[3-Morpholin-4-ylmethy1-5-(4-trifluoromethyl-pyrimidin-2-ylamino)-phenyl]-oxazol-2-yl}-4,7-diaza-spiro[2.5]octan-8-one]	< 500 nM
O=C1NCCN(c2ncc(-c3cc(Nc4nccc(-c5cccs5)n4)ccc3OCCN3CCOCC3)o2)C12CC2 [Compound 004, 4-{5-[2-(2-Morpholin-4-yl-ethoxy)-5-(4-thiophen-2-yl-pyrimidin-2-ylamino)-phenyl]-oxazol-2-yl}-4,7-diaza-spiro[2.5]octan-8-one]	< 500 nM
Cc1cc(Nc2nccc(C(F)(F)F)n2)cc(-c2cnc(N3CCNC(=O)C34CC4)o2)c1 [Compound 005, 4-{5-[3-Methy1-5-(4-trifluoromethyl-pyrimidin-2-ylamino)-phenyl]-oxazol-2-yl}-4,7-diaza-spiro[2.5]octan-8-one]	< 500 nM
Cc1ccnc(Nc2cc(CN3CCOCC3)cc(-c3cnc(N4CCNC(=O)C45CC5)o3)c2)n1 [Compound 006, 4-{5-[3-(4-Methyl-pyrimidin-2-ylamino)-5-morpholin-4-ylmethyl-phenyl]-oxazol-2-yl}-4,7-diaza-spiro[2.5]octan-8-one]	< 500 nM
CCc1ccnc(Nc2cccc(-c3cnc(N4CCNC(=O)C45CC5)o3)c2)n1 [Compound 007, 4-{5-[3-(4-Ethyl-pyrimidin-2-ylamino)-phenyl]-oxazol-2-yl}-4,7-diaza-spiro[2.5]octan-8-one]	< 500 nM
O=C1NCCN(c2ncc(-c3cccc(Nc4nccc(C(F)(F)F)n4)c3)o2)C12CC2 [Compound 008, 4-{5-[3-(4-Trifluoromethyl-pyrimidin-2-ylamino)-phenyl]-oxazol-2-yl}-4,7-diaza-spiro[2.5]octan-8-one]	< 500 nM
Cc1ccnc(Nc2cccc(-c3cnc(N4CCNC(=O)C45CCCC5)o3)c2)n1 [Compound 009, 6-{5-[3-(4-Methyl-pyrimidin-2-ylamino)-phenyl]-oxazol-2-yl}-6,9-diaza-spiro[4.5]decan-10-one]	< 500 nM
O=C1NCCN(c2ncc(-c3cccc(Nc4nccc(-c5ccccc5)n4)c3)o2)C12CC2 [Compound 010, 4-{5-[3-(4-Phenyl-pyrimidin-2-ylamino)-phenyl]-oxazol-2-yl}-4,7-diaza-spiro[2.5]octan-8-one]	< 500 nM
CC(C)c1ccnc(Nc2cccc(-c3cnc(N4CCNC(=O)C45CCC5)o3)c2)n1 [Compound 011, 5-{5-[3-(4-Isopropyl-pyrimidin-2-ylamino)-phenyl]-oxazol-2-yl}-5,8-diaza-spiro[3.5]non-9-one]	< 500 nM
Cc1ccnc(Nc2cccc(-c3cnc(N4CCNC(=O)C45CCC5)o3)c2)n1 [Compound 012, 5-{5-[3-(4-Methyl-pyrimidin-2-ylamino)-phenyl]-oxazol-2-yl}-5,8-diaza-spiro[3.5]nonan-9-one]	< 500 nM
CC(C)c1ccnc(Nc2cccc(-c3cnc(N4CCNC(=O)C45CC5)o3)c2)n1 [Compound 013, 4-{5-[3-(4-Isopropyl-pyrimidin-2-ylamino)-phenyl]-oxazol-2-yl}-4,7-diaza-spiro[2.5]octan-8-one]	< 500 nM
O=C1NCCN(c2ncc(-c3cccc(Nc4nccc(N5CCOCC5)n4)c3)o2)C12CC2 [Compound 014, 4-{5-[3-(4-Morpholin-4-yl-pyrimidin-2-ylamino)-phenyl]-oxazol-2-yl}-4,7-diaza-spiro[2.5]octan-8-one]	> 2000 nM
O=C1NCCN(c2ncc(-c3cccc(Nc4nccc(-c5cccs5)n4)c3)o2)C12CC2 [Compound 015, 4-{5-[3-(4-Thiophen-2-yl-pyrimidin-2-ylamino)-phenyl]-oxazol-2-yl}-4,7-diaza-spiro[2.5]octan-8-one]	< 500 nM
O=C1NCCN(c2ncc(-c3cccc(Nc4nccc(C(F)(F)F)n4)c3)o2)C12CCC2 [Compound 016, 5-{5-[3-(4-Trifluoromethyl-pyrimidin-2-ylamino)-phenyl]-oxazol-2-yl}-5,8-diaza-spiro[3.5]nonan-9-one]	< 500 nM
O=C1NCCN(c2ncc(-c3cc(Nc4nccc(C(F)(F)F)n4)ccc3OCCN3CCOCC3)o2)C12CC2 [Compound 017, 4-{5-[2-(2-Morpholin-4-yl-ethoxy)-5-(4-trifluoromethyl-pyrimidin-2-ylamino)-phenyl]-oxazol-2-yl}-4,7-diaza-spiro[2.5]octan-8-one]	< 500 nM
Cc1ccnc(Nc2ccc(F)c(-c3cnc(N4CCNC(=O)C45CC5)o3)c2)n1 [Compound 018, 4-{5-[2-Fluoro-5-(4-methyl-pyrimidin-2-ylamino)-phenyl]-oxazol-2-yl}-4,7-diaza-spiro[2.5]octan-8-one]	< 500 nM
Cc1ccnc(Nc2cccc(-c3cnc(N4CCNC(=O)C45CC5)o3)c2C)n1 [Compound 020, 4-{5-[2-Methyl-3-(4-methyl-pyrimidin-2-ylamino)-pheny]-oxazol-2-yl}-4,7-diaza-spiro[2.5]octan-8-one]	> 2000 nM
Cc1ccnc(Nc2cccc(-c3cnc(N4CCNC(=O)C45CC5)o3)c2)c1 [Compound 021, 4-{5-[3-(4-Methyl-pyridin-2-ylamino)-phenyl]-oxazol-2-yl}-4,7-diaza-spiro[2.5]octan-8-one]	500 to 2000 nM
O=C1NCCN(c2ncc(-c3cccc(Nc4nccs4)c3)o2)C12CC2 [Compound 022, 4-{5-[3-(Thiazol-2-ylamino)-phenyl]-oxazol-2-yl}-4,7-diaza-spiro[2.5]octan-8-one]	< 500 nM
